Results: patent US4525458A, “Method for the production of sphingomyelinase” (priority 1981, dated 1985)

Tested on: sphingomyelinase
Assay: Effect of metal ions on enzymatic activity
Type: biochemical, Streptomyces sp. A 9107
Conditions: additive 1 mM; no addition = 100
Experimental: (§1) After preincubating 0.45 ml of the following reaction mixture at 37° C., 50 μl of an enzyme solution is added to start the reaction. After just 10 minutes, 0.1 ml of 0.1M EDTA is added to stop the reaction.
(§2) The formed phosphorylcholine is led to a color development system through a H2 O2 by using the following reaction mixture, and absorbance at 500 nm is measured.
(§3) The indication of enzymatic activity is calculated from the following equation with activity to produce 1 μmole of phosphorylcholine for 1 minute as one unit:
(§4) wherein ΔA500 nm means a difference in absorbance at 500 nm between at the start of reaction and 10 minutes after the reaction.
In the case of `[Cl][Cu][Cl]` [CuCl2], the “Relative activity (%)” value is reported as 19%. For `[Cl-].[Cl-].[Co+2]` [CoCl2], the “Relative activity (%)” value was 35%. With `[Ca+2].[Cl-].[Cl-]` [CaCl2] the “Relative activity (%)” value was 48%. With `[Cl][Mn][Cl]` [MnCl2] the “Relative activity (%)” value was 236%. For `[Ba+2].[Cl-].[Cl-]` [BaCl2], the “Relative activity (%)” value was 89%. With `[Cl][Ni][Cl]` [NiCl2] the “Relative activity (%)” value was 12%. In the case of `[Cl-].[Cl-].[Mg+2]` [MgCl2], the “Relative activity (%)” value is reported as 232%. With `[Cl-].[Cl-].[Zn+2]` [ZnCl2] the “Relative activity (%)” value was 3%.

Same assay, conditions: additive 100 mM; no addition = 100
With `Cl.N` [NH4 Cl] the “Relative activity (%)” value was 79%. With `[Cl-].[K+]` [KCl] the “Relative activity (%)” value was 90%. In the case of `[Cl-].[Na+]` [NaCl], the “Relative activity (%)” value is reported as 73%.

Tested on: sphingomyelinase
Assay: Effect of surfactant on enzymatic activity
Type: biochemical, Streptomyces sp. A 9107
Conditions: additive 0.1%; no addition = 100
Experimental: as §1, §2, §3, §4
In the case of Triton X-100, the “Relative activity (%)” value is reported as 358%. With Sodium laurylbenzenesulfonate the “Relative activity (%)” value was 8%. In the case of `C[C@H](CCC(=O)O)[C@H]1CC[C@H]2[C@@H]3CC[C@@H]4C[C@H](O)CC[C@]4(C)[C@H]3C[C@H](O)[C@]12C` [Sodium deoxycholate], the “Relative activity (%)” value is reported as 16%. With `CCCCCCCCCCCCOS(=O)(=O)[O-].[Na+]` [Sodium laurylsulfate] the “Relative activity (%)” value was 13%.

Tested on: sphingomyelinase
Assay: Substrate specificity
Type: biochemical, Streptomyces sp. A 9107
Conditions: as substrate; sphingomyelin = 100
Experimental: as §1, §2, §3, §4
(10) SUBSTRATE SPECIFICITY
For Sphingomyelin, the “Relative activity (%)” value was 100%. With Phosphatidyl ethanolamine the “Relative activity (%)” value was 0%. With Phosphatidyl serine the “Relative activity (%)” value was 0%. In the case of Lecithin, the “Relative activity (%)” value is reported as 0%. For Phosphatidyl inositol, the “Relative activity (%)” value was 0%. With Lysolecithin the “Relative activity (%)” value was 0%.

Tested on: not listed separately
Assay: Thermal stability (residual activity)
Type: physicochemical
Conditions: 23 u/ml in 100 mM Tris-HCl buffer (pH 7.0), heated for 10 minutes
Experimental: An enzyme solution is prepared so that its concentration in 100 mM Tris-HCl buffer (pH 7.0) is 23 u/ml, and measured for the residual activity after heated for 10 minutes at every temperatures shown on the abscissa in FIG. 3. The liquor is kept stable until the treatment at 40° C. for 10 minutes.
For sphingomyelinase [enzyme], the “Temperature until which kept stable” value was no more than 40 °C.

Tested on: not listed separately
Assay: Isoelectric point by electrophoretic method using ampholite
Type: physicochemical
Conditions: not given
Experimental: It is determined by the electrophoretic method using ampholite, a carrier. The pH obtained is 8.6.
Compound sphingomyelinase [enzyme] has an Isoelectric point of 8.6 pH.

Tested on: not listed separately
Assay: Measurement of enzymatic activity (specific activity of preparations)
Type: biochemical
Conditions: 1 unit = 1 μmole phosphorylcholine per minute
Experimental: as §1, §2, §3, §4
With sphingomyelinase [enzyme] the Specific activity was 1,050 U/mg.
